Source: US20230151003A1, “COMPOUNDS AND METHODS OF USE” (Exelixis, Inc., priority 2020, published 2023)
Counter-ions that a name gives are not always drawn.

Key:
[1] = biological target: T1, Mer (Homo sapiens, UniProt Q12866); test: Mer autophosphorylation ELISA in transient transfected 293A cells; format: cell-based; conditions: Table 3 Cellular Activities; MERTK-transfected 293A cells, phospho-Mer ELISA
T1 construct: host or cells: 293A cells (Thermo Fisher #R70507)
T1 sequence (Q12866 21-999): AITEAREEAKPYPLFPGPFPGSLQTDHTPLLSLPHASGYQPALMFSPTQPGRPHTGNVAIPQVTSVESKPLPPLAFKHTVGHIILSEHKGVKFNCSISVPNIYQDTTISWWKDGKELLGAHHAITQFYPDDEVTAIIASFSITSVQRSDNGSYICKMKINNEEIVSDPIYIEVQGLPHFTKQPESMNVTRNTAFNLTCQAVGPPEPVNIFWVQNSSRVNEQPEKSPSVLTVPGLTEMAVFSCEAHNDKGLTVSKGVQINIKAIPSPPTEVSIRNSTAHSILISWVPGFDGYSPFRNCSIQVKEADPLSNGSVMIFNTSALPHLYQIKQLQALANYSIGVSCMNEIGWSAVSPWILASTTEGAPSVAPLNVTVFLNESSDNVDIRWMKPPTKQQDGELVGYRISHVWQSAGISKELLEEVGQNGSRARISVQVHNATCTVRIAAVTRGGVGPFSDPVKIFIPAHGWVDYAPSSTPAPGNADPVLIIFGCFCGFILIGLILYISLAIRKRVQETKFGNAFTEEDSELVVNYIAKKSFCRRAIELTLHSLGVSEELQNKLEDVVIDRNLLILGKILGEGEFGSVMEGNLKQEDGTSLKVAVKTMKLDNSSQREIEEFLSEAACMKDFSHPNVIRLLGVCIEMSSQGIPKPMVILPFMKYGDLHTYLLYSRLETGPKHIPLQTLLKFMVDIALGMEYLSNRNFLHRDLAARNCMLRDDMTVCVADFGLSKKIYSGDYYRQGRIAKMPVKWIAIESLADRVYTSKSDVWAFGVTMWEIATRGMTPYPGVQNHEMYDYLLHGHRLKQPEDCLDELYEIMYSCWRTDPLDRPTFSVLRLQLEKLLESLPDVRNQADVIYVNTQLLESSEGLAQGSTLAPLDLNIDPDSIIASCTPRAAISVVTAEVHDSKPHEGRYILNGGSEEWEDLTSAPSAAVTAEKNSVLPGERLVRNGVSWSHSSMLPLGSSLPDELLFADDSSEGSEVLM
Procedure, shortened: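 293A cells transiently transfected with human MERTK DNA, replated after 24 h, then treated 1 h with 8-point compound dilutions in serum-free medium (0.3% DMSO). Lysates assayed by phospho-Mer sandwich ELISA against phospho-Mer standard; DMSO = 100%, reference inhibitor = 0% activity; IC50 by 4-parameter logistic fit.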

[2] = biological target: KDR (Homo sapiens, UniProt P35968); test: KDR autophosphorylation ELISA in HUVEC cells; format: cell-based; design: endogenous in cells; host or cells: HUVEC (Lonza #C2519A); conditions: Table 3 Cellular Activities, VEGF165-stimulated, phospho-KDR ELISA
Sequence of KDR (P35968 20-1356): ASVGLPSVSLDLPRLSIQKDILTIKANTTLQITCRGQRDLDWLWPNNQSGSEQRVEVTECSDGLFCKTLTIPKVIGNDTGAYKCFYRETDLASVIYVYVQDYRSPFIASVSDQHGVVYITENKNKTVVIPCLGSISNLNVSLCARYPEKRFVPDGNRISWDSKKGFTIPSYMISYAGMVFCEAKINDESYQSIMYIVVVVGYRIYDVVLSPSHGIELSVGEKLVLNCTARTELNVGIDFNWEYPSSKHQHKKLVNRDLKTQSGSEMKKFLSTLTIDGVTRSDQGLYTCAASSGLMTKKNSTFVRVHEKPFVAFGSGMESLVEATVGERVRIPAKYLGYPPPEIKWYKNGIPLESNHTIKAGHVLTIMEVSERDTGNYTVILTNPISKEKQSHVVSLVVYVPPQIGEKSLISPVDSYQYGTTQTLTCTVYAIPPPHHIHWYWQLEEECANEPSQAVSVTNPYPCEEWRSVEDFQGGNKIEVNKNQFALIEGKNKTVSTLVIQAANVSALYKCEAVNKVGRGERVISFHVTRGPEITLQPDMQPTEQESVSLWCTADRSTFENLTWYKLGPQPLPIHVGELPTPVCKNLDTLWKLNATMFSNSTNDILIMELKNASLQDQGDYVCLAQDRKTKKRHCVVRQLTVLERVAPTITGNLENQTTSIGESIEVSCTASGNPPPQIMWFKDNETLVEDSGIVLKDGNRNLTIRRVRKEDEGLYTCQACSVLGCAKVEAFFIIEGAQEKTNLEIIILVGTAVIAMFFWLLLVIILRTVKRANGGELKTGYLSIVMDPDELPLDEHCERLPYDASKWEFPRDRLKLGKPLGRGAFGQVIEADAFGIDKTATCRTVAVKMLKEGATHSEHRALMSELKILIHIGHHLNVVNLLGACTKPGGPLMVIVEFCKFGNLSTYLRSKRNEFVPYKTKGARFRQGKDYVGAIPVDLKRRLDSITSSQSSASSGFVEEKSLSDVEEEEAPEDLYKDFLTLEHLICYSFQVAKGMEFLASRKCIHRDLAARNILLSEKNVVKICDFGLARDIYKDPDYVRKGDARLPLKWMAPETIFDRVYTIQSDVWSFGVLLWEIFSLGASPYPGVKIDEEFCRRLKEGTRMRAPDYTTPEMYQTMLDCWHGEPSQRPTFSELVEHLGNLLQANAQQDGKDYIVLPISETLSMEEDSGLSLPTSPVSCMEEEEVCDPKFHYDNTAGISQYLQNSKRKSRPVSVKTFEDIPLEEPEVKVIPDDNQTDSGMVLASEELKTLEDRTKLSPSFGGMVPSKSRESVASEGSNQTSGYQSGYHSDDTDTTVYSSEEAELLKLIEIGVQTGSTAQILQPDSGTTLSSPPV
Procedure, shortened: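 Read-out: phospho-KDR ELISA on cell lysates, quantified against a phospho-KDR standard, normalised to VEGF-stimulated DMSO (100%) and unstimulated (0%) wells, IC50 by 4-parameter fit. Cells were 24 h serum-starved HUVEC given compound for 1 h, then 100 ng/mL VEGF165 for 5 min.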

Work on `COc1cc2nccc(Oc3ccc(NC(=O)c4c5n(cc(-c6ccco6)c4=O)CCOC5)cc3F)c2nc1OC` [Compound 297, N-[4-[(6,7-Dimethoxy-1,5-naphthyridin-4-yl)oxy]-3-fluorophenyl]-7-(furan-2-yl)-8-oxo-3,4-dihydro-1H-pyrido[2,1-c][1,4]oxazine-9-carboxamide] yielded an IC50 [1] of no more than 100 nM and an IC50 [2] of 300 to 1000 nM.

For `COc1cnc2c(Oc3ccc(NC(=O)c4cnc(C)c(-c5cccs5)c4O)cc3)ccnc2c1` [Compound 257, 4-Hydroxy-N-[4-[(7-methoxy-1,5-naphthyridin-4-yl)oxy]phenyl]-6-methyl-5-thiophen-2-ylpyridine-3-carboxamide], the IC50 [1] was no more than 100 nM and the IC50 [2] was no more than 100 nM.

In the case of `COc1cc2nccc(Oc3ccc(NC(=O)c4ccc(C)n(-c5ccnc(O)c5)c4=O)cc3F)c2nc1OC` [Compound 232, N-[4-[(6,7-Dimethoxy-1,5-naphthyridin-4-yl)oxy]-3-fluorophenyl]-1-(2-hydroxypyridin-4-yl)-6-methyl-2-oxopyridine-3-carboxamide], the IC50 [1] is reported as no more than 100 nM and the IC50 [2] is reported as 300 to 1000 nM.

With `COc1cnc2c(Oc3ccc(NC(=O)c4c(C)ncc(-c5ccccn5)c4O)cc3F)ccnc2c1` [Compound 70, N-[3-Fluoro-4-[(7-methoxy-1,5-naphthyridin-4-yl)oxy]phenyl]-4-hydroxy-2-methyl-5-pyridin-2-ylpyridine-3-carboxamide] the IC50 [1] was no more than 100 nM and the IC50 [2] was no more than 100 nM.

Molecule `COc1cc2nccc(Oc3ccc(NC(=O)c4c(C)nc(C)c(-c5ccc(F)cn5)c4O)cc3F)c2nc1OC` [Compound 218, N-[4-[(6,7-Dimethoxy-1,5-naphthyridin-4-yl)oxy]-3-fluorophenyl]-5-(5-fluoropyridin-2-yl)-4-hydroxy-2,6-dimethylpyridine-3-carboxamide] has an IC50 [1] of no more than 100 nM and an IC50 [2] of no more than 100 nM.

Molecule `COc1cnc2c(Oc3ccc(NC(=O)c4cn(CCF)c(C)c(-c5cc(C)cs5)c4=O)cc3F)ccnc2c1` [Compound 328, 1-(2-Fluoroethyl)-N-[3-fluoro-4-[(7-methoxy-1,5-naphthyridin-4-yl)oxy]phenyl]-6-methyl-5-(4-methylthiophen-2-yl)-4-oxopyridine-3-carboxamide] has an IC50 [1] of no more than 100 nM and an IC50 [2] of 300 to 1000 nM.

In the case of `Cc1ccc(C(=O)Nc2ccc(Oc3ccnc4cccnc34)c(F)c2)c(=O)n1-c1ccc(F)cn1` [Compound 48, N-[3-Fluoro-4-(1,5-naphthyridin-4-yloxy)phenyl]-1-(5-fluoropyridin-2-yl)-6-methyl-2-oxopyridine-3-carboxamide], the IC50 [1] is reported as no more than 100 nM and the IC50 [2] is reported as 300 to 1000 nM.

In the case of `COc1cc2nccc(Oc3ccc(NC(=O)c4ncc(C)n(-c5ccc(F)cn5)c4=O)cc3F)c2nc1OC` [Compound 219, N-[4-[(6,7-Dimethoxy-1,5-naphthyridin-4-yl)oxy]-3-fluorophenyl]-4-(5-fluoropyridin-2-yl)-5-methyl-3-oxopyrazine-2-carboxamide], the IC50 [1] is reported as no more than 100 nM and the IC50 [2] is reported as no more than 100 nM.

`COc1cc2nccc(Oc3ccc(NC(=O)c4cc(C(C)=O)c(C)n(-c5ccco5)c4=O)cc3)c2nc1OC` [Compound 237, 5-Acetyl-N-[4-[(6,7-dimethoxy-1,5-naphthyridin-4-yl)oxy]phenyl]-1-(furan-2-yl)-6-methyl-2-oxopyridine-3-carboxamide] gave an IC50 [1] of no more than 100 nM and an IC50 [2] of 300 to 1000 nM.

For `COc1cnc2c(Oc3ccc(NC(=O)c4cc(C(C)=O)c(C)n(-c5ccoc5)c4=O)cc3F)ccnc2c1` [Compound 240, 5-Acetyl-N-[3-fluoro-4-[(7-methoxy-1,5-naphthyridin-4-yl)oxy]phenyl]-1-(furan-3-yl)-6-methyl-2-oxopyridine-3-carboxamide], the IC50 [1] was no more than 100 nM and the IC50 [2] was 300 to 1000 nM.

In the case of `COc1cc2nccc(Oc3ccc(NC(=O)c4cnc(C)c(-c5ccco5)n4)cc3F)c2nc1OC` [Compound 269, N-[4-[(6,7-Dimethoxy-1,5-naphthyridin-4-yl)oxy]-3-fluorophenyl]-6-(furan-2-yl)-5-methylpyrazine-2-carboxamide], the IC50 [1] is reported as no more than 100 nM and the IC50 [2] is reported as 300 to 1000 nM.

`COc1cc2nccc(Oc3ccc(NC(=O)c4c(C)n(C)cc(-c5ccc(F)cn5)c4=O)cc3)c2nc1OC` [Compound 72, N-[4-[(6,7-Dimethoxy-1,5-naphthyridin-4-yl)oxy]phenyl]-5-(5-fluoropyridin-2-yl)-1,2-dimethyl-4-oxopyridine-3-carboxamide] was tested, and the IC50 [1] was no more than 100 nM and the IC50 [2] was 300 to 1000 nM.

Molecule `COc1cc2nccc(Oc3ccc(NC(=O)c4cccn(-c5ccnc(O)c5)c4=O)cc3F)c2nc1OC` [Compound 248, N-[4-[(6,7-Dimethoxy-1,5-naphthyridin-4-yl)oxy]-3-fluorophenyl]-1-(2-hydroxypyridin-4-yl)-2-oxopyridine-3-carboxamide hydrochloride] has an IC50 [1] of 300 to 1000 nM and an IC50 [2] of 300 to 1000 nM.

`COc1cc2nccc(Oc3ccc(NC(=O)c4ccc(C)n(-c5cccnc5)c4=O)cc3F)c2nc1OC` [Compound 222, N-[4-[(6,7-Dimethoxy-1,5-naphthyridin-4-yl)oxy]-3-fluorophenyl]-6-methyl-2-oxo-1-pyridin-3-ylpyridine-3-carboxamide] showed an IC50 [1] of no more than 100 nM and an IC50 [2] of no more than 100 nM.

In the case of `COCCOc1cc2nccc(Oc3ccc(NC(=O)c4ccc(C)n(-c5ccc(F)cn5)c4=O)cc3F)c2nc1OC` [Compound 50, N-[3-Fluoro-4-[[6-methoxy-7-(2-methoxyethoxy)-1,5-naphthyridin-4-yl]oxy]phenyl]-1-(5-fluoropyridin-2-yl)-6-methyl-2-oxopyridine-3-carboxamide], the IC50 [1] is reported as no more than 100 nM and the IC50 [2] is reported as no more than 100 nM.

With `COc1cc2nccc(Oc3ccc(NC(=O)c4c5n(cc(-c6cc(C)cs6)c4=O)CCOC5)cc3F)c2nc1OC` [Compound 302, N-[4-[(6,7-Dimethoxy-1,5-naphthyridin-4-yl)oxy]-3-fluorophenyl]-7-(4-methylthiophen-2-yl)-8-oxo-3,4-dihydro-1H-pyrido[2,1-c][1,4]oxazine-9-carboxamide] the IC50 [1] was no more than 100 nM and the IC50 [2] was no more than 100 nM.

`COc1cc2nccc(Oc3ccc(NC(=O)c4c(C)ncc(-c5ccccn5)c4O)cc3F)c2nc1OC` [Compound 69, N-[4-[(6,7-Dimethoxy-1,5-naphthyridin-4-yl)oxy]-3-fluorophenyl]-4-hydroxy-2-methyl-5-pyridin-2-ylpyridine-3-carboxamide] was tested, and the IC50 [1] was no more than 100 nM and the IC50 [2] was no more than 100 nM.

In the case of `COc1cc2nccc(Oc3ccc(NC(=O)c4ccc(C)n(-c5ccc(F)c(C)n5)c4=O)cc3F)c2nc1OC` [Compound 227, N-[4-[(6,7-Dimethoxy-1,5-naphthyridin-4-yl)oxy]-3-fluorophenyl]-1-(5-fluoro-6-methylpyridin-2-yl)-6-methyl-2-oxopyridine-3-carboxamide hydrochloride], the IC50 [1] is reported as no more than 100 nM and the IC50 [2] is reported as no more than 100 nM.

`COc1cc2nccc(Oc3ccc(NC(=O)c4cccn(-c5ccc(F)cn5)c4=O)cc3F)c2nc1OC` [Compound 42, N-[4-[(6,7-Dimethoxy-1,5-naphthyridin-4-yl)oxy]-3-fluorophenyl]-1-(5-fluoropyridin-2-yl)-2-oxopyridine-3-carboxamide] gave an IC50 [1] of no more than 100 nM and an IC50 [2] of no more than 100 nM.

`COc1cc2nccc(Oc3ccc(NC(=O)c4cnc(C)c(-c5ccco5)c4O)cc3)c2cc1OC` [Compound 258, N-[4-(6,7-Dimethoxyquinolin-4-yl)oxyphenyl]-5-(furan-2-yl)-4-hydroxy-6-methylpyridine-3-carboxamide] showed an IC50 [1] of no more than 100 nM and an IC50 [2] of no more than 100 nM.

Work on `COc1cc2nccc(Oc3ccc(NC(=O)c4ccc(C)n(-c5ccnc(F)c5)c4=O)cc3F)c2nc1OC` [Compound 233, N-[4-[(6,7-Dimethoxy-1,5-naphthyridin-4-yl)oxy]-3-fluorophenyl]-1-(2-fluoropyridin-4-yl)-6-methyl-2-oxopyridine-3-carboxamide] yielded an IC50 [1] of no more than 100 nM and an IC50 [2] of no more than 100 nM.

`COc1cc2nccc(Oc3ccc(NC(=O)c4nnc(C)c(-c5ccc(F)cn5)c4OC)cc3F)c2nc1OC` [Compound 215, N-[4-[(6,7-Dimethoxy-1,5-naphthyridin-4-yl)oxy]-3-fluorophenyl]-5-(5-fluoropyridin-2-yl)-4-methoxy-6-methylpyridazine-3-carboxamide] gave an IC50 [1] of no more than 100 nM and an IC50 [2] of 300 to 1000 nM.
